Measured values taken from patent US6525017B1, “Using glutathiane to protect neurons from injury” (The Children's Medical Center Corporation, priority 1989, dated 2003).

How the values were obtained:
retinal ganglion cells = experiment: Survival of retinal ganglion cells exposed to glutamate (NMDA neurotoxicity); format: cell-based, rat; details: for NMDA receptor-mediated neurotoxicity / neuronal cell injury: oxidized DTT produced from reduced DTT with DTNB
Description: To investigate the influence of redox modulation on NMDA neurotoxicity, survival of an identified central neuron, the retinal ganglion cell, was monitored for 12-24 hr after a brief (5-10 min.) exposure to DTT. To determine the degree of killing specifically related to activation of the NMDA receptor, APV at 200 μM was added to sibling cultures. APV-preventable, glutamate-induced death was increased 70±9% with DTT treatment.
Retinal ganglion cell neurons were labeled in situ, dissociated from the retina, and cultured as follows. Retinal ganglion cells from 7- to 12-day-old Long-Evans rats were labeled and enzymatically dissociated as described by Leifer et al., Science 224: 303, 1984. Following rinse of the dissociated retinal cells with a physiological saline based on Hanks' salts (composition in mM: NaCl, 137; NaHCO3, 1; Na2HPO4, 0.34; KCl, 5,36; KH2PO4, 0.44; CaCl2, 1.25, MgSO4, 0.5; MgCl2, 0.5; N-2-hydroxyethyl-piperazine-N′-2-ethanesulfonic acid (HEPES), 5; dextrose, 22.2; Phenol Red, 0.001% v/v; adjusted to pH 7.2 with 0.3 M NaOH), the cells were mechanically dispersed and aliquoted to treatment vials. These vials contained control saline solution, or saline solution with either 0.5-2 mM DTT, or 0.5 mM DTT in the presence of 1 mM DTNB. Treatment groups with DTNB were readjusted to pH 7.2 with 0.3 M NaOH. Cells were agitated gently over a 5-10 min period. After treatment, 100 μl volumes of the cell suspension were plated onto glass coverslips coated with poly-L-lysine in 35×10 mm tissue-culture dishes containing 2 ml of culture medium. The cell culture medium was based on Eagle's minimum essential medium (MEM), modified so that it was nominally free of magnesium and contained 10 mM CaCl2 to enhance NMDA receptor-mediated neuro-toxicity. The medium was also supplemented with methylcellulose 0.7% w/v, gentamicin 1 μg/ml, dextrose 16 mM, and rat serum 5% v/v. Glutamate levels in the culture medium were monitored by HPLC analysis. Concentrations of glutamate added to the medium of each experiment to induce cell killing averaged 10 μM (day to day variability in neuronal cell death was most probably due to slight variations in the amount of endogenous glutamate or a glutamate-like substance in these cultures). The 100 μl aliquots of cell suspension diluted into the 2 ml of MEM produced a final concentration of 50 μM Mg^2+, as well as levels of DTT and DTNB at 5% of their initial treatment concentrations. The cell cultures were incubated for 12-24 hours at 37° C. in an atmosphere of 5% CO2/95% humidified air. Neuronal survival was then scored by counting retinal ganglion cells displaying uptake and cleavage of fluorescein diacetate to fluorescein, as described by Hahn et al. Proc. Nat. Acad. Sci. USA 85:6556, 1988.
Experiments were conducted in triplicate and repeated on eleven separate days. In order to compare results obtained on different days, data were normalized such that the total number of surviving neurons in a given experiment divided by the number of treatment categories (i.e., 4) equalled 100.
Retinal cells were cultured as described in Example 1. In these experiments transient exposure to the reduced form of DTT (500 μM) occurred in the presence of DTNB (1 mM).

NMDA receptor = experiment: NMDA-induced responses recorded in intact chick retina (eyecup, optic nerve DC potential); format: cell-based; details: APV 100 μM
Description: Eyecups were obtained from 2-to 5-day-old chicks and continuously superfused at 20-25° C. at a rate of 8 ml/min with Tyrodes solution (130 mM NaCl, 3 mM KCl, 17 mM dextrose, 20 mM NaHCO3, 0.01% w/v phenol red; bubbled with a gas mixture of 95% O2 and 5% CO2) containing 5 mM MgCl2 to reduce synaptic activity. […] Traces were triggered by the opening of two solenoid valves that shunted approximately 200 μl of agonist (1, 1-dimethyl-4-phenyl-piperazinium iodide, DMPP or NMDA) into the perfusion line, Agonists reached the preparation approximately 7s later. […] Some experiments were performed in the presence of 10 μg/ml catalase and 1 μg/ml superoxide dismutase. Antagonists, reducing agents, or oxidizing agents were introduced directly via the perfusate.

NMDA receptors = details: 0.5-10 mM

Question: How did the “vulnerability of neurons despite DTT treatment” value (retinal ganglion cells; 200 μM APV after DTT treatment) turn out when NC(CCCP(=O)(O)O)C(=O)O (stereo not shown) [APV, 2-amino-5-phosphonovalerate] was run?
Answer: Its value is “could be blocked”.

Question: And the “death of retinal ganglion cells exposed to glutamate in the culture medium” value (retinal ganglion cells; APV 200 μM, DTT transient exposure, 12-24 hr)?
Answer: Its value is “prevented the death”.

Question: What about the “neuronal survival compared to baseline” value (retinal ganglion cells; DTT 500 μM in the presence of DTNB 1 mM, APV cultures P<0.01) of the same compound?
Answer: Its value is “significantly greater than baseline”.

Question: And the “NMDA-induced responses in native and reduced states” value (NMDA receptor)?
Answer: The value was “blocked NMDA-induced responses”.

Question: With O[C@H]1CSSC[C@@H]1O [oxidized DTT, oxidized dithiotheritol] as the compound, how does the “NMDA receptor-mediated neurotoxicity / neuronal cell injury” value (retinal ganglion cells) read?
Answer: Its value is “does not effect neuronal cell injury”.

Question: And the “NMDA receptor-mediated neurotoxicity / neuronal cell injury” value (retinal ganglion cells; listed as oxidized dithiotheritol (DTT))?
Answer: Its value is “does not significantly affect”.

Question: With N[C@@H](CCC(=O)N[C@@H](CS)C(=O)NCC(=O)O)C(=O)O [reduced glutathione, glutathione] as the compound, how does the “protection against toxicity mediated at NMDA receptors” value (NMDA receptors) read?
Answer: Its value is “can protect”.
